± gives the expanded uncertainty stated by the source.
Assays:
[1] = Molar enthalpy of transition or fusion; details: Crystal; DSC
[2] = for molar entropy: 101.33 kPa; for Normal melting temperature: DTA

OC[C@H](O)C(O)[C@@H](O)CO [L-(-)-arabitol]
Details | Molar enthalpy of transition or fusion [kcal/mol]
[1] | 8.79 ± 1.77

[2]
Details | molar entropy [J/K/mol]
1 K, Crystal, relaxation calorimetry | 0.0005209 ± 5.9e-05
2 K, Crystal, relaxation calorimetry | 0.002213 ± 0.00021
3 K, Crystal, relaxation calorimetry | 0.006332 ± 0.00059
4 K, Crystal, relaxation calorimetry | 0.0143 ± 0.0013
5 K, Crystal, relaxation calorimetry | 0.0278 ± 0.0026
6 K, Crystal, relaxation calorimetry | 0.04885 ± 0.0045
7 K, Crystal, relaxation calorimetry | 0.07993 ± 0.0074
8 K, Crystal, relaxation calorimetry | 0.1243 ± 0.011
9 K, Crystal, relaxation calorimetry | 0.1854 ± 0.017
10 K, Crystal, relaxation calorimetry | 0.2663 ± 0.025
15 K, Crystal, relaxation calorimetry | 1.038 ± 0.095
20 K, Crystal, relaxation calorimetry | 2.479 ± 0.23
25 K, Crystal, relaxation calorimetry | 4.532 ± 0.42
30 K, Crystal, relaxation calorimetry | 7.074 ± 0.65
35 K, Crystal, relaxation calorimetry | 9.99 ± 0.92
40 K, Crystal, relaxation calorimetry | 13.19 ± 1.2
45 K, Crystal, relaxation calorimetry | 16.61 ± 1.5
50 K, Crystal, relaxation calorimetry | 20.19 ± 1.9
55 K, Crystal, relaxation calorimetry | 23.88 ± 2.2
60 K, Crystal, relaxation calorimetry | 27.65 ± 2.5
65 K, Crystal, relaxation calorimetry | 31.48 ± 2.9
70 K, Crystal, relaxation calorimetry | 35.36 ± 3.2
75 K, Crystal, relaxation calorimetry | 39.27 ± 3.6
80 K, Crystal, relaxation calorimetry | 43.19 ± 4
85 K, Crystal, relaxation calorimetry | 47.12 ± 4.3
90 K, Crystal, relaxation calorimetry | 51.04 ± 4.7
95 K, Crystal, relaxation calorimetry | 54.97 ± 5
100 K, Crystal, relaxation calorimetry | 58.89 ± 5.4
110 K, Crystal, relaxation calorimetry | 66.69 ± 6.1
120 K, Crystal, relaxation calorimetry | 74.44 ± 6.8
130 K, Crystal, relaxation calorimetry | 82.11 ± 7.5
140 K, Crystal, relaxation calorimetry | 89.7 ± 8.2
150 K, Crystal, relaxation calorimetry | 97.21 ± 8.9
160 K, Crystal, relaxation calorimetry | 104.63 ± 9.6
170 K, Crystal, relaxation calorimetry | 111.97 ± 10
180 K, Crystal, relaxation calorimetry | 119.24 ± 11
190 K, Crystal, relaxation calorimetry | 126.44 ± 12
200 K, Crystal, relaxation calorimetry | 133.58 ± 12
210 K, Crystal, relaxation calorimetry | 140.66 ± 13
220 K, Crystal, relaxation calorimetry | 147.69 ± 14
230 K, Crystal, relaxation calorimetry | 154.69 ± 14
240 K, Crystal, relaxation calorimetry | 161.65 ± 15
250 K, Crystal, relaxation calorimetry | 168.59 ± 15
260 K, Crystal, relaxation calorimetry | 175.51 ± 16
270 K, Crystal, relaxation calorimetry | 182.43 ± 17
273.15 K, Crystal, relaxation calorimetry | 184.6 ± 17
280 K, Crystal, relaxation calorimetry | 189.34 ± 17
290 K, Crystal, relaxation calorimetry | 196.25 ± 18
298.15 K, Crystal, relaxation calorimetry | 201.89 ± 19
300 K, Crystal, relaxation calorimetry | 203.17 ± 19
305 K, Crystal, Small sample (50 mg) DSC | 206.64 ± 62
310 K, Crystal, Small sample (50 mg) DSC | 210.13 ± 63
315 K, Crystal, Small sample (50 mg) DSC | 213.64 ± 64
320 K, Crystal, Small sample (50 mg) DSC | 217.18 ± 65
325 K, Crystal, Small sample (50 mg) DSC | 220.73 ± 66
330 K, Crystal, Small sample (50 mg) DSC | 224.32 ± 67
335 K, Crystal, Small sample (50 mg) DSC | 227.93 ± 69
340 K, Crystal, Small sample (50 mg) DSC | 231.6 ± 70
345 K, Crystal, Small sample (50 mg) DSC | 235.34 ± 71
350 K, Crystal, Small sample (50 mg) DSC | 239.2 ± 72
355 K, Crystal, Small sample (50 mg) DSC | 243.24 ± 73
360 K, Crystal, Small sample (50 mg) DSC | 247.71 ± 74
380 K, Liquid, Small sample (50 mg) DSC | 355.56 ± 110
385 K, Liquid, Small sample (50 mg) DSC | 361.46 ± 110
390 K, Liquid, Small sample (50 mg) DSC | 367.15 ± 110
395 K, Liquid, Small sample (50 mg) DSC | 372.77 ± 110
400 K, Liquid, Small sample (50 mg) DSC | 378.34 ± 110
405 K, Liquid, Small sample (50 mg) DSC | 383.87 ± 120
410 K, Liquid, Small sample (50 mg) DSC | 389.35 ± 120
415 K, Liquid, Small sample (50 mg) DSC | 394.8 ± 120

Details | Normal melting temperature [°C]
[2], Crystal | 96.70 ± 0.61

OC[C@@H](O)[C@@H](O)CO [meso-1,2,3,4-butanetetrol]
Details | Molar enthalpy of transition or fusion [kcal/mol]
[1] | 10.7 ± 1.29

[2]
Details | molar entropy [J/K/mol]
1 K, Crystal, relaxation calorimetry | 0.0005942 ± 6.7e-05
2 K, Crystal, relaxation calorimetry | 0.002515 ± 0.00024
3 K, Crystal, relaxation calorimetry | 0.007205 ± 0.00068
4 K, Crystal, relaxation calorimetry | 0.01633 ± 0.0015
5 K, Crystal, relaxation calorimetry | 0.03184 ± 0.003
6 K, Crystal, relaxation calorimetry | 0.05604 ± 0.0052
7 K, Crystal, relaxation calorimetry | 0.09153 ± 0.0084
8 K, Crystal, relaxation calorimetry | 0.1411 ± 0.013
9 K, Crystal, relaxation calorimetry | 0.2079 ± 0.019
10 K, Crystal, relaxation calorimetry | 0.2944 ± 0.027
15 K, Crystal, relaxation calorimetry | 1.077 ± 0.099
20 K, Crystal, relaxation calorimetry | 2.466 ± 0.23
25 K, Crystal, relaxation calorimetry | 4.373 ± 0.4
30 K, Crystal, relaxation calorimetry | 6.67 ± 0.61
35 K, Crystal, relaxation calorimetry | 9.244 ± 0.85
40 K, Crystal, relaxation calorimetry | 12.02 ± 1.1
45 K, Crystal, relaxation calorimetry | 14.94 ± 1.4
50 K, Crystal, relaxation calorimetry | 17.96 ± 1.6
55 K, Crystal, relaxation calorimetry | 21.05 ± 1.9
60 K, Crystal, relaxation calorimetry | 24.19 ± 2.2
65 K, Crystal, relaxation calorimetry | 27.37 ± 2.5
70 K, Crystal, relaxation calorimetry | 30.57 ± 2.8
75 K, Crystal, relaxation calorimetry | 33.79 ± 3.1
80 K, Crystal, relaxation calorimetry | 37.01 ± 3.4
85 K, Crystal, relaxation calorimetry | 40.23 ± 3.7
90 K, Crystal, relaxation calorimetry | 43.44 ± 4
95 K, Crystal, relaxation calorimetry | 46.65 ± 4.3
100 K, Crystal, relaxation calorimetry | 49.83 ± 4.6
110 K, Crystal, relaxation calorimetry | 56.17 ± 5.2
120 K, Crystal, relaxation calorimetry | 62.43 ± 5.7
130 K, Crystal, relaxation calorimetry | 68.62 ± 6.3
140 K, Crystal, relaxation calorimetry | 74.74 ± 6.9
150 K, Crystal, relaxation calorimetry | 80.8 ± 7.4
160 K, Crystal, relaxation calorimetry | 86.79 ± 8
170 K, Crystal, relaxation calorimetry | 92.72 ± 8.5
180 K, Crystal, relaxation calorimetry | 98.61 ± 9.1
190 K, Crystal, relaxation calorimetry | 104.44 ± 9.6
200 K, Crystal, relaxation calorimetry | 110.22 ± 10
210 K, Crystal, relaxation calorimetry | 115.97 ± 11
220 K, Crystal, relaxation calorimetry | 121.68 ± 11
230 K, Crystal, relaxation calorimetry | 127.36 ± 12
240 K, Crystal, relaxation calorimetry | 133.01 ± 12
250 K, Crystal, relaxation calorimetry | 138.64 ± 13
260 K, Crystal, relaxation calorimetry | 144.24 ± 13
270 K, Crystal, relaxation calorimetry | 149.82 ± 14
273.15 K, Crystal, relaxation calorimetry | 151.57 ± 14
280 K, Crystal, relaxation calorimetry | 155.38 ± 14
290 K, Crystal, relaxation calorimetry | 160.92 ± 15
298.15 K, Crystal, relaxation calorimetry | 165.43 ± 15
300 K, Crystal, relaxation calorimetry | 166.46 ± 15
305 K, Crystal, Small sample (50 mg) DSC | 169.22 ± 31
310 K, Crystal, Small sample (50 mg) DSC | 172 ± 31
315 K, Crystal, Small sample (50 mg) DSC | 174.78 ± 32
320 K, Crystal, Small sample (50 mg) DSC | 177.57 ± 32
325 K, Crystal, Small sample (50 mg) DSC | 180.36 ± 33
330 K, Crystal, Small sample (50 mg) DSC | 183.15 ± 33
335 K, Crystal, Small sample (50 mg) DSC | 185.94 ± 34
340 K, Crystal, Small sample (50 mg) DSC | 188.74 ± 34
345 K, Crystal, Small sample (50 mg) DSC | 191.53 ± 35
350 K, Crystal, Small sample (50 mg) DSC | 194.32 ± 35
355 K, Crystal, Small sample (50 mg) DSC | 197.11 ± 36
360 K, Crystal, Small sample (50 mg) DSC | 199.9 ± 36
365 K, Crystal, Small sample (50 mg) DSC | 202.7 ± 37
370 K, Crystal, Small sample (50 mg) DSC | 205.49 ± 37
375 K, Crystal, Small sample (50 mg) DSC | 208.29 ± 38
380 K, Crystal, Small sample (50 mg) DSC | 211.1 ± 38
385 K, Crystal, Small sample (50 mg) DSC | 213.99 ± 39
390 K, Crystal, Small sample (50 mg) DSC | 217.51 ± 39
405 K, Liquid, Small sample (50 mg) DSC | 333.59 ± 60
410 K, Liquid, Small sample (50 mg) DSC | 338.24 ± 61
415 K, Liquid, Small sample (50 mg) DSC | 342.55 ± 62
420 K, Liquid, Small sample (50 mg) DSC | 346.8 ± 63
425 K, Liquid, Small sample (50 mg) DSC | 351 ± 64
430 K, Liquid, Small sample (50 mg) DSC | 355.15 ± 64
435 K, Liquid, Small sample (50 mg) DSC | 359.26 ± 65

Details | Normal melting temperature [°C]
[2], Crystal | 121.67 ± 0.61
